This assay deals with T1, S100A8 protein (S100 calcium binding protein A8; MRP-8) (Mus musculus, UniProt P27005).
T1 construct: amine-coupled to CM5 (COOH) chip
T1 sequence (P27005 2-89): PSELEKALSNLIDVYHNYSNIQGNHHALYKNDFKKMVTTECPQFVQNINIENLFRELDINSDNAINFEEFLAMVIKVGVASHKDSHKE
Kind of assay: SPR (BIAcore […]), S100A8 immobilized. The conditions noted are these: 20 mM Tris-HCl, 150 mM NaCl, 1 mM TCEP, pH 7.2, 25 C; GA 0-500 uM. In general terms: SPR reads the build-up and loss of mass on a sensor chip optically.

For the compound `CC1(C)[C@@H](O[C@H]2O[C@H](C(=O)O)[C@@H](O)[C@H](O)[C@H]2O[C@@H]2O[C@H](C(=O)O)[C@@H](O)[C@H](O)[C@H]2O)CC[C@]2(C)[C@H]3C(=O)C=C4[C@@H]5C[C@@](C)(C(=O)O)CC[C@]5(C)CC[C@@]4(C)[C@]3(C)CC[C@@H]12` [GA, Glycyrrhizic acid], the “binding (SPR)” value was “The experimental results show binding between GA and S100A8 protein (Fig. 5E)”.

Source of the values: article PMC10007777, “Glycyrrhizic acid inhibits myeloid differentiation of hematopoietic stem cells by binding S100 calcium binding protein A8 to improve cognition in aged mice” (Immunity & Ageing : I & A, 2023).
